Source: paper PMC8696986, “Synthesis and evaluation of 3′-[^18F]fluorothymidine-5′-squaryl as a bioisostere of 3′-[^18F]fluorothymidine-5′-monophosphate” (RSC Advances, 2021)
Read-outs that look alike come from different tables or passages of the source.

Columns and labels:
[1] = parameters: method as in PMID 12217356, PMID 27319940; settings: cited from earlier work
[2] = cited from earlier work
[3] = Log D7.5 determination (shake flask method); assay type: physicochemical; settings: octanol/PBS pH 7.5, mean ± SD, n = 3
Method: The hydrophilicity of [^18F]SqFLT (>90% RCP) was determined experimentally by its Log D7.5 using the shake flask method. […] Being a highly hydrophilic molecule, we were sceptical that [^18F]SqFLT would be cell permeable and aimed to determine this experimentally in radioactive cell uptake experiments.
To a 1.5 mL microcentrifuge tube was added PBS pH 7.5 (500 μL) and octanol (500 μL). The tube was shaken for 15 min, followed by centrifugation (13 000g, 5 min). [^18F]SqFLT (3 MBq) in PBS (<5% EtOH) was added and the samples shaken for 30 min, followed by centrifugation (13 000g, 5 min). Aliquots from the octanol layer and PBS layer were removed (100 μL) and placed in counting tubes. Radioactivity was measured using a γ-counter and the partition coefficient was calculated using Log D7.5 = log10[Oct/PBS]. The Log D7.5 value was reported as mean ± SD (n = 3, triplicate analysis).

[4] = system: WT HCT116 cells; test: In vitro cell uptake of radiotracer in WT HCT116 cells; assay type: cell-based, human
Method: (§1) HCT116 (human colon cancer; LGC Standards, Teddington, Middlesex, UK) and subsequent knockdown HCT116^shTMPK− cells were cultured in Roswell Park Memorial Institute Medium 1640 supplemented with 10% foetal bovine serum, 2% Penicillin-Streptomycin (5000 U mL^−1) and 1% L-Glutamine. Cells were maintained in a 5% CO2 humidified incubator at 37 °C and grown in 6-well plates at 300 000 cells per well or 1 500 000 cells (per 15 cm petri dish for HPLC) for the stated cell lines. All cells were grown for 24 h in a volume of 2 mL per well or 10 mL per petri dish unless stated otherwise. All cells were maintained at 60–70% confluence prior to experiments, passaged in our laboratory for fewer than 6 months on receipt and were tested mycoplasma free. Experiments were performed using cells under 10 passages.
[^18F]SqFLT (0.74 mBq per well) was added to individual wells and cells were incubated at 37 °C in a humidified atmosphere of 5% CO2 for 15, 30, 60, 90 and 120 min. Following incubation, cells were washed three times with 1× PBS and lysed once ice for 15 min using RIPA buffer (1 mL per well). Cell lysates were homogenized and transferred to radioactivity counting tubes. Radioactivity in each sample was counted using an auto-gamma counter (Perkin Elmer, London, UK). Total protein per sample was quantified using the Pierce™ BCA protein assay method. Decay corrected counts were normalized to protein concentration as percentage incubated dose per milligram of cellular protein (%ID per mg protein) in each sample.

[5] = system: HCT116^shTMPK− cells; test: In vitro cell uptake of radiotracer in TMPK knockdown HCT116^shTMPK− cells; assay type: cell-based, human; settings: 0.74 MBq, 60 min incubation, n = 6, mean ± SEM
Method: as §1
Guide RNA (gRNA) sequences for CRISPR/Cas9 were generated from CRISPR design web site (http://crispr.mit.edu/), provided by the Feng Zhang Lab.[33] […]
[^18F]SqFLT (0.74 mBq per well) was added to individual wells and cells were incubated at 37 °C in a humidified atmosphere of 5% CO2 for 15, 30, 60, 90 and 120 min. […] Cell lysates were homogenized and transferred to radioactivity counting tubes. Radioactivity in each sample was counted using an auto-gamma counter (Perkin Elmer, London, UK). Total protein per sample was quantified using the Pierce™ BCA protein assay method. […]

[6] = system: TK1 and ENT1/2 ([^18F]FLT uptake in HCT116 cells); test: In vitro competition assay between [^18F]FLT and thymidine/[^19F]SqFLT; assay type: cell-based, human
Method: HCT116 were plated and maintained at 60–70% confluence in complete media conditions as previously described. […] Treated cells were incubated at 37 °C for 20 min before [^18F]FLT was added to each well to yield a final concentration of 0.74 mBq per well. Cells were subsequently incubated in a humidified atmosphere of 5% CO2 for 1 h before being lysed and gamma counted as previously described.
(§2) 6.0 Metabolite analysis in microsomes
Figure 31. Representative HPLC chromatograms showing A) parent [18F]SqFLT, and incubation of [18F]SqFLT with HLM for B) 30 mins and C) 60 mins.
The experiment was performed in triplicate (n = 3)
7.0 Gene structure and positions of CRISPR and PCR primers.
Figure 32. Diagram (not to scale) indicates overall gene structure and positions of the CRISPRS […]
8.0 Determining if [18F]SqFLT is a substrate for TK1 and ENT1/2 […]
and B) [19F]SqFLT to determine the effect on [18F]FLT uptake. HCT116 cells (at 60 – 70 % […]
for 20 min prior to co-incubation with [18F]FLT (0.74 MBq). Radioactive uptake normalised […]

[7] = biological target: T1, ABCB1 transporter (HCT116 cells) (Homo sapiens, UniProt P08183); test: Efflux assay with verapamil; assay type: cell-based; settings: verapamil 3 μM, 1 h pre-incubation then 1 h co-incubation
T1 construct: endogenous in cells; host or cells: HCT116 cells
T1 sequence (P08183 whole entry): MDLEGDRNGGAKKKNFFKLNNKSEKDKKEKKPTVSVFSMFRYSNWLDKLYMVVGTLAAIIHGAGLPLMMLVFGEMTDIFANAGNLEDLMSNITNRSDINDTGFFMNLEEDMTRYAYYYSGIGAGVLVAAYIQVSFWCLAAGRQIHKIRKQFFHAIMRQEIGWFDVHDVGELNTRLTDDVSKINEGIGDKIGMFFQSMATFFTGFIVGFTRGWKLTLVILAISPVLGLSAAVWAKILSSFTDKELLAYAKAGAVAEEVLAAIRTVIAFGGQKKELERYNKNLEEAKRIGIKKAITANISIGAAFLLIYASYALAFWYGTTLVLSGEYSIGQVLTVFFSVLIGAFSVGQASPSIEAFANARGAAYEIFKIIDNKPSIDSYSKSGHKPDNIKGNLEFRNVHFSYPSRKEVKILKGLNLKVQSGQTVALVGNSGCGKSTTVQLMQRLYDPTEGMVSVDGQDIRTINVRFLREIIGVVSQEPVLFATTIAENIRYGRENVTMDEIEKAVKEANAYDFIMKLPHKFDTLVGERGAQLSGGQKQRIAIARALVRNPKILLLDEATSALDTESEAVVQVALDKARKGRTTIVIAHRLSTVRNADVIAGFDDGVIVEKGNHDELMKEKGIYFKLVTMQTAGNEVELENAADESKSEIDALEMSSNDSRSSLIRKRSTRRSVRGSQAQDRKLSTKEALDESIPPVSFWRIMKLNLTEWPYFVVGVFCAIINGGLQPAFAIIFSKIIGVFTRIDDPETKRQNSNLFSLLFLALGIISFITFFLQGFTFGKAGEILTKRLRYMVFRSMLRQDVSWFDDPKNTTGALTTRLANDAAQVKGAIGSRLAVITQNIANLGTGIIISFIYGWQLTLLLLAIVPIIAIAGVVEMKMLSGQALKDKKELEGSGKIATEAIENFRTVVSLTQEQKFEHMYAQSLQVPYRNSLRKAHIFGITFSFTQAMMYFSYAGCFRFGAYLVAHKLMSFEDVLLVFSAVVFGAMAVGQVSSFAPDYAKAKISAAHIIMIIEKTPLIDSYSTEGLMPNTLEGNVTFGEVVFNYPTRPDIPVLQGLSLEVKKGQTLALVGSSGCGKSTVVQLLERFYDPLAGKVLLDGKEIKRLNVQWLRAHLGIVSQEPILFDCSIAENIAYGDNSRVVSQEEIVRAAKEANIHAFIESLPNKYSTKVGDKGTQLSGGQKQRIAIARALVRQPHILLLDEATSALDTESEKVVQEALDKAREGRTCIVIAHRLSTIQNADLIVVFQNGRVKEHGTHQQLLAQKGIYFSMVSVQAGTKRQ
Method: HCT116 cells were plated and maintained at 60–70% confluence in complete media conditions as previously described. Following 24 h, cell media was aspirated and treated with media containing 3 μM verapamil for 1 h prior to co-incubation with 0.74 mBq of [^18F]SqFLT. Cells were subsequently incubated for a further 1 h before being lysed and gamma counted as previously described.
9.0 Determining if [18F]SqFLT is a substrate for multidrug resistance proteins
0.00 Control 1 h Verapamil
Figure 34. Uptake of [18F]SqFLT in HCT116 cells following treatment with Verapamil. HCT 116 cells were pre-incubated with Verapamil (3 µM) for 60 min followed by co-incubated with [18F]SqFLT (0.74 MBq). One-way Anova statistical analysis and Dunnets post hoc was performed for n = 5 samples.
10.0 Time activity curves (TAC)
Figure 35. Time-activity curves derived from region-of-interest analysis of PET imaging data (including detail of uptake kinetics between 0-5 min of [18F]SqFLT injection) in bladder, kidneys and gallbladder. Data represent mean ± SEM (n>5) and is expressed as % of injected […]
1 M. Yun, S. J. Oh, H. J. Ha, J. S. Ryu and D. H. Moon, Nucl. Med. Biol., 2003, 30, 151–
2 C. N. Tetzlaff, I. Schwope, C. F. Bleczinski, J. A. Steinberg and C. Richert, Tetrahedron
(also on this page, place not known: [18F]-SqFLT (% ID/mg protein) uptake of 4215–4218.)
(1 picture or pasted object on this page, not shown here)

[8] = In vitro metabolite analysis in human liver microsomes; assay type: in vitro ADME; settings: HLM, 37 °C, over 60 min
Method: A published method for performing in vitro metabolite analysis using liver microsomes was adapted.[35] [^18F]SqFLT (40 μL, 3.5 MBq) was added to human liver microsomes (50 μL, 1 mg mL^−1), NADPH regeneration system A (50 μL), NADPH regeneration system B (10 μL) and PBS (400 μL, 0.1 M) in a 1.5 mL microcentrifuge tube. The mixture was gently vortexed and incubated in aerobic conditions at 37 °C with gentle shaking for either 30 min or 60 min using a thermomixer. The mixture was transferred into a 15 mL plastic centrifuge tube and proteins were precipitated with ice-cold MeCN + 0.1% TFA (2 mL) and vortexed. Proteins were pelleted by centrifugation (12 000g, 3 min), and the supernatant removed and filtered (0.2 μm). The supernatant was diluted (1 : 9) with H2O + 0.1% TFA and injected onto a HPLC instrument bearing a 1 mL injection loop and PosiRam (LabLogic, Sheffield, UK) metabolite detector. Samples of a known volume were taken from the supernatant and the entire protein pellet were counted using an auto-gamma counter (Perkin Elmer, London, UK) to determine the extraction efficiency. All experiments were performed in triplicate (n = 3).
as §2
Figure 31. Representative HPLC chromatograms showing A) parent [18F]SqFLT, and incubation of [18F]SqFLT with HLM for B) 30 mins and C) 60 mins. The extraction efficiency was 96.1 ± 0.4 %. […]

[9] = system: WT HCT116 tumours; test: Dynamic PET imaging, WT HCT116 xenografts; assay type: in vivo, female BALB/c athymic nude mice
Method: (§3) Female BALB/c athymic nude mice (6–8 weeks old), injected subcutaneously with either mutant HCT116^shTMPK− or WT HCT116 (Charles River UK Ltd., Margate, UK) at 5 × 10^6 cells per mouse, using dynamic PET imaging (Fig. 5A). Inoculations were performed under 2% isoflurane/O2 anesthesia 7 days after animal arrival. All mice were aged 10–16 weeks with similar weight (20 ± 2 g) and kept under standard conditions in individually ventilated cages (maximum of 6 animals per cage) prior to experiments.
(§4) BALB/c mice (Charles River UK Ltd, Margate, UK) were anesthetized and scanned on a dedicated small animal PET scanner (G4 Genesis, Sofie Biosciences, Culver City, CA, USA) following a bolus injection of 0.75 MBq of [^18F]SqFLT via a lateral tail vein cannula. Imaging was performed under 2% isoflurane/O2 anaesthesia. After tracer injection, emission scans were acquired in list-mode format (over 0–60 min – dynamic scans) to give decay-corrected values of radioactivity accumulation in tissues. The collected data were reconstructed with a 3-dimensional maximum likelihood estimation method 3D ML-EM (Sofie Biosciences). Cumulative images of the data were used for visualization of radiotracer uptake and to define tissue volumes of interest (VOIs) using Siemens Inveon Research Workplace software (Siemens Molecular Imaging, Inc. Knoxville, USA). Tissue radioactivity uptake values were normalized to injected dose and mouse weight.

[10] = system: HCT116^shTMPK− tumours; test: Dynamic PET imaging, HCT116^shTMPK− xenografts; assay type: in vivo, female BALB/c athymic nude mice; settings: mutant HCT116^shTMPK− xenograft, 2–10 min post-injection, PET time–activity curve
Method: as §3
as §4, with “Cumulative images of the data were used for visualization of radiotracer uptake and to define tissue volumes of interest (VOIs) using Siemens Inveon Research Workplace software (Siemens Molecular Imaging, Inc. Knoxville, USA).” left out

## 3′-[^18F]fluorothymidine-5′-monophosphate [[^18F]FLTMP]
[1]; first value
  monophosphate pKa: 1.6
[1]; second value
  monophosphate pKa: 6.6

## O=c1c(O)c(NCc2ccccc2)c1=O [3-(benzylamino)-4-hydroxycyclobut-3-ene-1,2-dione]
[2]; PAMPA
  permeability: significantly higher permeability compared to a phosphate analogue
[2]; pH 7.4
  Log D7.4: −1.4

## Cc1cn([C@H]2C[C@H]([18F])[C@@H](CNc3c(O)c(=O)c3=O)O2)c(=O)[nH]c1=O [[^18F]SqFLT, 3′-[^18F]fluorothymidine-5′-squaryl]
[3]
  logD: -2.9 ± 0.24
[4]; HCT116 and HCT116^shTMPK− cells, as summed up in the abstract
  tracer uptake in vitro: < 0.3 % ID mg^−1
[4]; WT HCT116, 0.74 MBq, 60 min incubation, n = 6, mean ± SEM
  uptake of [^18F]SqFLT: 0.24 ± 0.04 % ID mg^−1
[4]; WT HCT116, between 15–120 min
  drop of uptake: 2 fold
[4]; WT HCT116, uptake kinetic profile over 120 min
  time of peak uptake: 0 to 15 min
[5]
  uptake of [^18F]SqFLT: 0.14 ± 0.04 % ID g^−1
[6]; inferred from competition of [^19F]SqFLT (1–10 μg mL^−1) with [^18F]FLT
  dependence of uptake on TK1 and nucleoside transporters (ENT1/2): independent of TK1 and nucleoside transporters (ENT1/2)
[7]
  effect of verapamil on radiotracer uptake: did not change radiotracer uptake
[8]
  metabolism in human liver microsomes: no metabolism over 60 min
[9]; WT HCT116 xenograft, 2–10 min post-injection, PET time–activity curve
  peak radiotracer uptake in tumour: 2.69 ± 0.12 % ID g^−1
[9]; mice, PET time-activity curves
  route of elimination: eliminated through the kidney, liver, and bladder
[9]; post-injection, WT and mutant xenografts, 60 min dynamic PET scan
  time of peak radiotracer uptake in tumour: 2 to 10 min
[10]
  peak radiotracer uptake in tumour: 1.58 ± 0.12 % ID g^−1

## Cc1cn([C@H]2C[C@H](F)[C@@H](CNc3c(O)c(=O)c3=O)O2)c(=O)[nH]c1=O [[^19F]SqFLT, 5′-amino-5′-N-(2-hydroxy-3,4-dioxocyclobuten-1-yl)-5′,3′-deoxy-3′-fluoro-thymidine]
[6]; 10^−3–10^1 μg mL^−1, 20 min before [^18F]FLT, then 1 h
  effect on [^18F]FLT uptake: did not inhibit [^18F]FLT uptake
